Inhibition data for 1 molecule are collected here from paper PMC6934184, “Selective DNA-PKcs inhibition extends the therapeutic index of localized radiotherapy and chemotherapy” (The Journal of Clinical Investigation, 2019).

The target in the experiment is T1, STK33 (Homo sapiens, UniProt Q9BYT3).
T1 construct: purchased Thermo Fisher Scientific (Life Technologies) SelectScreen
Briefly: SelectScreen LanthaScreen. The experiment is classed as binding. The following applies: read-out: % displacement. The essentials:
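Percent values come from Thermo SelectScreen profiling of NU5455, combining activity and binding assays. CSF1R was run in Z'LYTE format at Km app ATP, and CAMK1 in Adapta format with ATP listed at 10.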

T1 sequence (Q9BYT3 whole entry): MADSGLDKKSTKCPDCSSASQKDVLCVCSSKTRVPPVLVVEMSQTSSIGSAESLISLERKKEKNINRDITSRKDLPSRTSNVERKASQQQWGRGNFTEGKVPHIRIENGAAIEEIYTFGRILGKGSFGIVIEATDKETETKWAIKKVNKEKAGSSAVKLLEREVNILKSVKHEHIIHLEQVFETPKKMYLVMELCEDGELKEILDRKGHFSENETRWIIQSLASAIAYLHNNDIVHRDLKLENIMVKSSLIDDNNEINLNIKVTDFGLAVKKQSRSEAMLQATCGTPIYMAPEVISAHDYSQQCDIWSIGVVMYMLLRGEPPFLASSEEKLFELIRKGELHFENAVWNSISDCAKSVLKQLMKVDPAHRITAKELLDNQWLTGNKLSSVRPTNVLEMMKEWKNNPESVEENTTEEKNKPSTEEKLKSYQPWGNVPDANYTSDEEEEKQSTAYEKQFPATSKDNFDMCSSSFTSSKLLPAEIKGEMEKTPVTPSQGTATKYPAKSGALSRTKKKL

Turning to `CN(C(=O)CN1CCOCC1)c1ccc2sc3c(-c4cccc5c(=O)cc(N6CC7CCC(C6)O7)oc45)cccc3c2c1` [NU5455], the inhibition at 1 µM turned out to be 4.7%.
